Data: patent US20140106967A1, “AUXIN PLANT GROWTH REGULATORS” (The Governors of The University of Alberta, priority 2011, published 2014)

Tested on: Pisum sativum L. cv. Carneval
Experiment: Field study, seed yield of pea 'Carneval' (Table P1)
Assay type: in vivo
Settings: for Seed yield per 1 meter row: sprayed at about 5% first flower
From the text: In a field study, pea (Pisum sativum L. cv. Carneval) seed with a germination rate assessed at greater than 95% was planted on May 11, 2011 into black-loam soil that had been clean-cultivated for two previous growing seasons located at the Edmonton Research Station (ER31) of the University of Alberta, Edmonton, Alberta, Canada. The treatment plots measured 2 m wide by 3 m long, comprising rows 50 cm apart. The seeds were precision-drilled by hand at 5 cm intervals in each row. At the time of seeding, fresh TagTeam® granular rhizobial inoculant was drilled with the seed at the rate of 1.11 g per 6 m^2. No herbicides or pesticides were used during this study and plots were manually weeded to maintain weed-free plots. Seed emergence began on May 26, 2011 (15 days post-planting) due to cool temperature conditions after planting. Precipitation during the growing season was within the regional average. The treatments consisted of one application of aqueous 4-methyl-indole-3-acetic acid (4-ME-IAA) solutions at 1×10^−6M, 1×10^−5M, 5×10^−5M, or 1×10^−4M in 0.1% (v/v) Tween 80, or an aqueous control solution (0.1% [v/v] Tween 80) applied to the plants on Jul. 10, 2011, when about 5% of the plants were in first flower (1 treatment per plot; 5 treatments/plots total). A separate Chapin 20000-type 4 L pneumatic sprayer was used for applying each treatment solution; each sprayer was equipped with a medium-delivery blue fan nozzle designed to deliver 1.4 L per minute at the normal operating pressure of 40 PSI. Each plot was sprayed with a total of 0.7 L of solution to obtain uniform coverage. At the time of spraying, the mean day temperature was 15.9° C., the mean wind speed was 7 km/h, the relative humidity was 86%, and the sky was overcast. Harvesting (by hand) took place Aug. 27 to 30, 2011 after the plants had desiccated naturally. The pods were further dried for six days in a forced-air drier at 30° C. prior to obtaining seed weights. Each plot was harvested in eight groups of 20 contiguous plants arranged so that each group (1 m section of row) had at least two plants immediately next to it at each end. The treatment replication unit was 20 contiguous plants as diagramed in Figure P1. As the between-row spacing was 50 cm, the yield from each group represented that from 0.5 m^2

In the case of Cc1cccc2[nH]cc(CC(=O)O)c12 [4-ME-IAA, 4-methyl-indole-3-acetic acid], the “increase in seed yield vs control” value (1×10^−4 M) is reported as 28%, the “Seed yield per 1 meter row” value (1×10^−4 M) is reported as 123.20 ± 9.19 g and the “Seed yield per 1 meter row” value (1×10^−5 M) is reported as 105.63 ± 10.72 g. For the same molecule, the “increase in seed yield vs control” value (1×10^−6 M) was 43%, the “Seed yield per 1 meter row” value (1×10^−6 M) was 137.84 ± 10.16 g and the “Seed yield per 1 meter row” value (5×10^−5 M) was 78.85 ± 12.06 g.
